The test system of assay [1] is MCF-7/Adr (adriamycin-resistant) cells. The assay is described as follows: growth inhibition of MCF7/adr cells in culture. It is filed as cell-based, human. Particulars: mean ± standard deviation, read-out: Gl50 (concentration of lipid required to inhibit the growth of fifty percent of the cells in culture). The method, then:
(§1) The Gl50 values for edelfosine (1), 2′-deoxy-β-D-arabinopyranosyl (2), 2′-deoxy-α-D-arabinopyranosyl (3), 2-O-methyl-β-D-glucopyranosyl (4), 2′-O-methyl-β-D-mannopyranosyl (5) and α-D-mannopyransoyl (6) on A-549, MCF-7, Lewis Lung, MCF-7/Adr (adriamycin-resistant), P388, P-388/Adr, L1210 and L1210/vmdr cells were determined and are set forth below (see Table 4) as the concentration (micromolar) of lipid required to inhibit the growth of fifty percent of the cells in culture.
(§2) Gl50 values are given as the mean ± standard deviation; the Gl50 value from each experiment “n” was generated from three individual wells on two separate plates (six total wells); n=1 for compounds 3-6; n=2 for most cell lines treated with compound 2 ^an=3; ^bn=2; ^cn=6; ^dn=8.

For a further assay, the system named is L1210/vmdr cells. Kind of assay: growth inhibition of L1210/vmdr cells in culture. Particulars: mean ± standard deviation, read-out: Gl50 (concentration of lipid required to inhibit the growth of fifty percent of the cells in culture). It counts as cell-based. On the procedure: as §1, §2
The subject of assay [2] is A549 cells (non-small cell lung adenocarcinoma). Kind of assay: growth inhibition of A549 cells in culture. It counts as cell-based, human. To be noted: mean ± standard deviation, read-out: Gl50 (concentration of lipid required to inhibit the growth of fifty percent of the cells in culture). On the procedure: (§3) Human epithelial cancer cell lines were grown from frozen stocks originally obtained from the ATCC, in media commonly used for growing these cells in culture. For example, A549 cells (non-small cell lung adenocarcinoma) were cultured in Ham's F-12 medium, T84 cells (colon carcinoma) were cultured in a 1:1 mixture of F-12 and DMEM while MCF-7 (breast adenocarcinoma) and A427 (large cell lung carcinoma) cells were cultured in DMEM. The media were supplemented with 10% fetal bovine serum, penicillin (50 U/ml), streptomycin (50 micogram/ml) and fungizone (0.5 microgram/ml). OVCAR-3 cells (ovarian adenocarcinoma) were cultured in RPMI 1640 medium supplemented with 20% FBS and 10 microgram/ml insulin.
(§4) Cells were subcultured into 24-well plates and the cell number was monitored daily. When the cells were in log phase, the media was replaced with one containing the required drug concentration, and the cells were incubated for 72 h. The increase in cell numbers relative to control wells (without any drug) was determined after the incubation. Stock solutions of the drugs ([…]) were prepared in ethanol and stored at −20 deg. C. Etherlipid solutions (30 micromolar) in the appropriate media were prepared fresh on the day of the experiment and serially diluted to give the required concentrations. The final concentration of ethanol in all wells was 0.1% (v/v).
as §2

Assay [3] deals with OVCAR-3 cells (ovarian adenocarcinoma). Kind of assay: growth inhibition of OVCAR-3 cells in culture. It is filed as cell-based, human. Particulars: for growth: increase in cell numbers relative to control wells (control = 100): OVCAR-3, 72 h. On the procedure:
as §3, §4

The subject of the next assay is P388 cells. Kind of assay: growth inhibition of P388 cells in culture. It counts as cell-based, murine. Particulars: mean ± standard deviation, read-out: Gl50 (concentration of lipid required to inhibit the growth of fifty percent of the cells in culture). On the procedure:
as §1, §2

A further assay has as its system Lewis Lung cells. Kind of assay: growth inhibition of Lewis Lung cells in culture. It is filed as cell-based, murine. Particulars: mean ± standard deviation, read-out: Gl50 (concentration of lipid required to inhibit the growth of fifty percent of the cells in culture). On the procedure:
as §1, §2

The next assay deals with HT29 cells. The assay is described as follows: growth inhibition of HT29 cells in culture. It is filed as cell-based. Particulars: read-out: Gl50 (concentration of lipid required to inhibit the growth of fifty percent of the cells in culture).
In the next assay the test system is L1210 cells. Kind of assay: growth inhibition of L1210 cells in culture. It is filed as cell-based. To be noted: mean ± standard deviation, read-out: Gl50 (concentration of lipid required to inhibit the growth of fifty percent of the cells in culture). The method, then: as §1, §2
For assay [4], the system named is MCF-7 (breast adenocarcinoma) cells. Kind of assay: growth inhibition of MCF-7 cells in culture. It is filed as cell-based, human. To be noted: MCF7, mean ± standard deviation, read-out: Gl50 (concentration of lipid required to inhibit the growth of fifty percent of the cells in culture). On the procedure:
as §3, §4, §2

A further assay concerns P-388/Adr cells. Kind of assay: growth inhibition of P388/adr cells in culture. It counts as cell-based, murine. To be noted: mean ± standard deviation, read-out: Gl50 (concentration of lipid required to inhibit the growth of fifty percent of the cells in culture). The method, then: as §1, §2

The structures appear in SMILES notation. Where two headings read alike, the source gives them in different places.

Consider `CCCCCCCCCCCCCCCCCCOCC(COP(=O)([O-])OCC[N+](C)(C)C)OC` (stereo not drawn) [compound 1, edelfosine, reference compound], for which the IC50 in assay [1] (Homo sapiens, NCI/ADR-RES) stood at 30.4 µM; in the assay on L1210/vmdr cells (Mus musculus) it was 11 µM; in assay [2] (Homo sapiens) it was 5.05 µM; in assay [3] (Homo sapiens, OVCAR-3 ovarian cancer cell line, read-out: Gl50 (the source's name)), 24 µM; in the assay on P388 cells (Mus musculus), 4.33 µM; in the assay on Lewis Lung cells (Mus musculus, Lewis lung carcinoma), 30.2 µM. Also, the IC50 in the assay with HT29 cells (Homo sapiens, HT-29, mean ± standard deviation) came out at 2.2 µM; with L1210 cells (Mus musculus) it was 3.32 µM; in assay [4] (Homo sapiens) it was 9.66 µM; in the assay with P-388/Adr cells (Mus musculus), 6.39 µM. Further, the “growth: increase in cell numbers relative to control wells (control = 100)” value stood at 105.8 ± 8.5 in [3] (lipid concentration 5 μM); 77.5 ± 1.0 in assay [3] (lipid concentration 10 μM); 70.7 ± 9.9 in assay [3] (lipid concentration 15 μM); 68.7 ± 13.6 in [3] (lipid concentration 20 μM); 20.4 ± 8.1 in [3] (lipid concentration 30 μM).

`CCCCCCCCCCCCCCCCOC[C@H](CO[C@H]1O[C@H](CO)[C@@H](O)[C@H](O)[C@@H]1OC)OC` [compound 5, 1-O-Hexadecyl-2-O-methyl-3-O-(2′-O-methyl-α-D-mannopyransoyl)-sn-glycerol]: the IC50 in [1] is 18.55 ± 0.07 µM; in the assay with L1210/vmdr cells it was 16.5 ± 1.13 µM; in assay [2], 15.55 ± 0.07 µM; in the assay on HT29 cells (mean ± standard deviation), 20 ± 0.28 µM; in the assay on L1210 cells, 15.5 ± 0.35 µM; in [4] it was 18.2 µM.

As to `CCCCCCCCCCCCCCCCOC[C@H](CO[C@@H]1C[C@H](O)[C@H](O)CO1)OC` [compound 3, 1-O-Hexadecyl-2-O-methyl-3-O-(2′-deoxy-α-D-arabinopyransoyl)-sn-glycerol], the IC50 in assay [1] is 24.4 ± 0.42 µM; with L1210/vmdr cells, 26.9 ± 1.06 µM; in assay [2], 19.65 ± 0.07 µM; in the assay with HT29 cells (mean ± standard deviation), 29.6 ± 0.28 µM; with L1210 cells, 18.8 ± 0.49 µM; in assay [4], 24.4 ± 0.64 µM.

Regarding `CCCCCCCCCCCCCCCCOC[C@H](CO[C@H]1C[C@H](O)[C@H](O)CO1)OC` [compound 2, 1-O-Hexadecyl-2-O-methyl-3-O-(2′-deoxy-β-D-arabinopyransoyl)-sn-glycerol], the IC50 came out at 12.8 ± 0.85 µM in [1]; 7.09 ± 0.33 µM with L1210/vmdr cells; 9.9 ± 0.99 µM in assay [2]; 12.7 ± 0.78 µM in the assay on P388 cells; 11.1 ± 0.49 µM in the assay with Lewis Lung cells; 7.59 ± 0.23 µM with HT29 cells (mean ± standard deviation). The IC50 came to 7.02 ± 0.49 µM in the assay with L1210 cells, 6.93 ± 0.12 µM in [4] and 10.2 ± 0.34 µM in the assay with P-388/Adr cells.

In the case of `CCCCCCCCCCCCCCCCOC[C@H](CO[C@@H]1O[C@H](CO)[C@@H](O)[C@H](O)[C@H]1OC)OC` [compound 4, 1-O-Hexadecyl-2-O-methyl-3-O-(2′-methyl-β-D-glucopyransoyl)-sn-glycerol], the IC50 in [1] worked out at 21.8 ± 0.63 µM; in assay [2] it was 18.3 ± 0.14 µM; in the assay on P388 cells, 18.1 ± 1.13 µM; with Lewis Lung cells, 26 ± 0.71 µM; in assay [4] it was 23.1 ± 0.64 µM; in the assay with P-388/Adr cells, 29.3 ± 5.66 µM.

Source of the values: patent US6573246B1, “Modified ether glyceroglycolipids” (The Liposome Company, Inc., priority 1995, dated 2003).
